# Measured values as given in US20170044100A1, “INHIBITORS OF DRUG-RESISTANT MYCOBACTERIUM TUBERCULOSIS” (THE JOHNS HOPKINS UNIVERSITY, priority 2014, published 2017).
# Read-outs that look alike come from different tables or passages of the source.
# Tests used:
# [1] = test system: M. tuberculosis H37Rv; experiment: microbe, parasite or virus in culture; assay type: cell-based, Mycobacterium tuberculosis; design: MICBD / MBCBD: unit not given here
# [2] = test system: M. tuberculosis strain H37Rv; experiment: microbe, parasite or virus in culture; assay type: cell-based, Mycobacterium tuberculosis; design: MICMABA: unit not given here
# [3] = Cytotoxicity assay on Vero cells (alamar blue); settings: African green monkey, Vero cells (ATCC CCL-81)
# [4] = test system: Vero cells; experiment: Cytotoxicity assay on Vero cells (alamar blue); settings: for IC50: Chlorocebus sabaeus, Vero
# [5] = test system: M. tuberculosis H37Rv; assay type: cell-based, Mycobacterium tuberculosis; settings: 4× MIC
# [6] = test system: V4207 (drug susceptible strain of M. tuberculosis); experiment: microbe, parasite or virus in culture; assay type: cell-based; settings: Mycobacterium tuberculosis, MABA, read-out: MIC V4207 (DS)
# [7] = Mycobacterium tuberculosis, H37RV
# [8] = Mycobacterium tuberculosis, parental H37Rv strain, read-out: MIC for H37Rv
compound,measurement,setting,value
"Cc1cc(C)c2cc(C(=O)N(C)C3CCCCC3)[nH]c2c1 [Compound 16, N-Cyclohexyl-N,4,6-trimethyl-/H-indole-2-carboxamide]",MICBD,[1],128
same,MIC,[2],450 µM
same,MICMABA,[2],32
"Cc1cc(C)c2cc(C(=O)NC3C4CC5CC(C4)CC3C5)[nH]c2c1 (centres unmarked) [Compound 14, N-(2-Adamantyl)-4,6-dimethyl-1H-indole-2-carboxamide]",MICMABA,"[2]; H37Rv, MABA, Table 9",0.0039
same,MIC,[2]; [7],0.012 µM
same,IC50 at 72 h,[3],> 200 µM
same,IC50,[4]; read-out: IC50 Vero Cells,> 64 µg/mL
"Cc1cc(C)c2cc(C(=O)NCC3CCCCC3)[nH]c2c1 [Compound 15, N-(Cyclohexylmethyl)-4,6-dimethyl-1H-indole-2-carboxamide]",MBCBD,"[1]; H37Rv, broth dilution, Table 9",0.25
same,MICBD,"[1]; H37Rv, broth dilution, Table 9",0.25
same,MICMABA,"[2]; H37Rv, MABA, Table 9",0.25
same,MIC,[2]; [7],0.88 µM
same,IC50 at 72 h,[3],> 200 µM
same,IC50,[4]; read-out: IC50 Vero Cells,> 64 µg/mL
CC[C@@H](CO)NCCN[C@@H](CC)CO [Ethambutol],MIC,[2]; [8],1 µg/mL
NCC[C@H](O)C(=O)N[C@@H]1C[C@H](N)[C@@H](O[C@H]2O[C@H](CN)[C@@H](O)[C@H](O)[C@H]2O)[C@H](O)[C@H]1O[C@H]1O[C@H](CO)[C@@H](O)[C@H](N)[C@H]1O [Amikacin],MIC,[2]; [8],1 µg/mL
"Cc1cc(C)c2cc(C(=O)NC3CC3)[nH]c2c1 [Compound 10, N-Cyclopropyl-4,6-dimethyl-1H-indole-2-carboxamide]",MICBD,"[1]; H37Rv, broth dilution, Table 9",128
same,MICMABA,"[2]; H37Rv, MABA, Table 9",64
same,MIC,[2]; [7],561 µM
CO[C@H]1/C=C/O[C@@]2(C)Oc3c(C)c(O)c4c(O)c(c(/C=N/N5CCN(C)CC5)c(O)c4c3C2=O)NC(=O)/C(C)=C\C=C\[C@H](C)[C@H](O)[C@@H](C)[C@@H](O)[C@@H](C)[C@H](OC(C)=O)[C@@H]1C [Rifampin],MIC,"[2]; Mycobacterium tuberculosis, H37RV, read-out: MIC for H37Rv",0.125 µg/mL
"Cc1ccc(NC(=O)c2cc3ccccc3[nH]2)cc1F [Compound 27, N-(3-Fluoro-4-methylphenyl)-1H-indole-2-carboxamide]",MICBD,"[1]; H37Rv, broth dilution, Table 9",128
same,MICMABA,"[2]; H37Rv, MABA, Table 9",128
"Cc1cc(C)c2cc(C(=O)Nc3ccc(C)c(F)c3)[nH]c2c1 [Compound 5, N-(3-Fluoro-4-methylphenyl)-4,6-dimethyl-1H-indole-2-carboxamide]",MBCBD,"[1]; H37Rv, broth dilution, Table 9",8
same,MICBD,"[1]; H37Rv, broth dilution, Table 9",0.5
same,MICMABA,"[2]; H37Rv, MABA, Table 9",0.25
same,MIC,[2]; [7],1.7 µM
same,IC50 at 72 h,[3],> 200 µM
same,IC50,[4]; read-out: IC50 Vero Cells,> 64 µg/mL
"N-(2,3,5 -methyl, 4-dimethyl)-6-bromo-1H-indole-2-carboxamide [BB]",MICMABA,"[2]; H37Rv, MABA, Table 9",0.0039- 0.0078
CC(C)=CCC/C(C)=C/CNCCNC1C2CC3CC(C2)CC1C3 (centres unmarked) [SQ109],MIC,[2]; [8],0.25 µg/mL
"Cc1cc(C)c2cc(C(=O)NC3CCCN(C)CC3)[nH]c2c1 (centres unmarked) [Compound 9, N-(1-Methyl-4-azepanyl)-4,6-dimethyl-1H-indole-2-carboxamide]",MICMABA,"[2]; H37Rv, MABA, Table 9",128
same,MIC,[2]; [7],428 µM
"Cc1cc(C)c2cc(C(=O)Nc3ccncc3)[nH]c2c1 [Compound 6, N-(4-Pyridinyl)-4,6-dimethyl-1H-indole-2-carboxamide]",MICBD,"[1]; H37Rv, broth dilution, Table 9",64
same,MICMABA,"[2]; H37Rv, MABA, Table 9",32
same,MIC,[2]; [7],240 µM
"Cc1cc(C)c2cc(C(=O)NC3CCCCCC3)[nH]c2c1 [Compound 11, N-Cycloheptyl-4,6-dimethyl-1H-indole-2-carboxamide]",MBCBD,"[1]; H37Rv, broth dilution, Table 9",0.0312
same,MICBD,"[1]; H37Rv, broth dilution, Table 9",0.0156
same,MBC,"[1]; Mycobacterium tuberculosis, H37RV, read-out: minimum bactericidal concentration (MBC)",0.0313 µg/mL
same,MICMABA,"[2]; H37Rv, MABA, Table 9",0.0156
same,MIC,[2]; [7],0.055 µM
same,MIC,"[2]; Mycobacterium tuberculosis, control strains H37Rv and V4207, read-out: MIC",0.0156 to 0.0313 µg/mL
same,MIC,[2]; [8],0.0156 to 0.0313 µg/mL
same,time to kill at least 4 log10 CFUs,[5],≤ 3 days
same,IC50 at 72 h,[3],> 200 µM
same,IC50,[4]; read-out: IC50 Vero Cells,> 64 µg/mL
same,IC50,[4]; read-out: IC50 for Vero cell viability,> 64 µg/mL
same,Selectivity Index,"[4]; Vero IC50 versus MIC, Table 9",>2048
same,selectivity index,[4]; toxicity versus MIC,> 2048
same,MIC,[6],0.11 µM
"O=C(NC12CC3CC(CC(C3)C1)C2)c1cc2ccc(O)cc2[nH]1 [Compound 32, N-(1-Adamantyl)-6-hydroxy-1H-indole-2-carboxamide]",MICMABA,"[2]; H37Rv, MABA, Table 9",2
same,IC50,[4]; read-out: IC50 Vero Cells,16 µg/mL
"O=C(NC1CCCCCCC1)c1cc2c(Cl)cc(Cl)cc2[nH]1 [Compound 70, N-Cyclooctyl-4,6-dichloro-1H-indole-2-carboxamide]",MICMABA,"[2]; H37Rv, MABA, Table 9",0.0039
"C[C@H]1COc2c(N3CCN(C)CC3)c(F)cc3c(=O)c(C(=O)O)cn1c23 [Levofloxacin, reference compound]",MIC,[2]; [8],0.25 µg/mL
BM212,MIC for H37Rv,[2]; parental H37Rv strain,2 µg/mL
